# Activity calls are given as the source filed them.
# What was measured:
# BHK-21 = assay: BHK-21 cell toxicity, dose response, cytotoxicity control, plate reader, cherry-pick samples (AID 687030); format: functional, cell-based; conditions: Mesocricetus auratus
# [1] = target: Matrix metalloproteinase-14 (Homo sapiens, UniProt P50281); assay: Dose Response confirmation of uHTS hits for a small molecule inhibitors of MT1-MMP activation in a fluorescence assay set 1.; format: functional
# [2] = T. cruzi growth inhibition in host cells, dose response, cell-based, plate reader, dry powder, set 2 (AID 652275); format: functional
# cells [3] = assay: cells
# Major prion protein = Major prion protein (Homo sapiens, UniProt P04156); format: functional, cell-based
# [4] = Artemis endonuclease inhibitor potency, dose response, biochemical, fluorescence intensity (AID 720701); format: functional;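 note: Artemis endonuclease enzyme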
# [5] = growth suppression of beta-catenin-knockout colon cells, dose response, cell-based, HCT116, human colon tumor (AID 1045); format: functional;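 note: HCT116 colon tumor cells with beta catenin knocked out; cells exposed to compound for 60 hours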
# [6] = growth suppression of PTEN-null colon cells, dose response, cell-based, HCT116 PTEN knockout (AID 1047); format: functional;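 note: HCT116 colon tumor cells with PTEN knocked out; cells exposed to compound for 60 hours before readout; potency for loss of cell viability measured by luminescence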
# cells [7] = format: functional
# [8] = target: 1-phosphatidylinositol 4,5-bisphosphate phosphodiesterase beta-3 (Homo sapiens, UniProt Q01970); assay: Fluorescence-based biochemical high throughput dose response assay to identify inhibitors of phospholipase C isozymes (PLC-B3).
# [9] = target: 1-phosphatidylinositol 4,5-bisphosphate phosphodiesterase gamma-1 (Homo sapiens, UniProt P19174); assay: Counterscreen for inhibitors of phospholipase C isozymes (PLC-B3): Fluorescence-based biochemical high throughput dose response assay to identify inhibitors of phospholipase C isozymes (PLC-gamma1).
# Protein RecA = target: T1, Protein RecA (Mycobacterium tuberculosis, UniProt P9WHJ3); assay: Fluorescence Cell-Free Homogeneous Dose Retest to Identify Inhibitors of RecA-Intein Splicing Activity. [Related pubchem assays (depositor defined):AID2097, AID2223, AID489010, AID492950]; format: functional
# T1 sequence (P9WHJ3 whole entry): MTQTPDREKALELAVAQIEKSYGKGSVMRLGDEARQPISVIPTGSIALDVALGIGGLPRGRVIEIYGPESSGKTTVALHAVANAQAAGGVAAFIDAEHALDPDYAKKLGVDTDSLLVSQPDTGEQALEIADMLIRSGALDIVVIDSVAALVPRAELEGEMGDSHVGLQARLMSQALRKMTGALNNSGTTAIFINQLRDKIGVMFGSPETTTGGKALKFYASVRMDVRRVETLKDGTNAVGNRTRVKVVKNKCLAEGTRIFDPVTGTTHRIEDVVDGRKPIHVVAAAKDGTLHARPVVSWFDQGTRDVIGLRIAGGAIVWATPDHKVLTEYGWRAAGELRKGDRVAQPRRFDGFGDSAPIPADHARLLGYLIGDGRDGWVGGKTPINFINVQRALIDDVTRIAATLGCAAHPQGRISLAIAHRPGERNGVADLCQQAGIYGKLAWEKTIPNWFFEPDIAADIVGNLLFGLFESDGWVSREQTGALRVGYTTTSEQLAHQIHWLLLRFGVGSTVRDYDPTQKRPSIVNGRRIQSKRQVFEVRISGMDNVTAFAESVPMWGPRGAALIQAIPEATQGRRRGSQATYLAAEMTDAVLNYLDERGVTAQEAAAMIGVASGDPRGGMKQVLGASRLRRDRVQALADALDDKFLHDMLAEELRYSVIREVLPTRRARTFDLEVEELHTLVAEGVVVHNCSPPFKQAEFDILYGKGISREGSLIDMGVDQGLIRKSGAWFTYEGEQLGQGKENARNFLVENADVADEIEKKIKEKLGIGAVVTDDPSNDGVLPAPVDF
# [10] = THP-1 cell cytotoxicity, dose response, cytotoxicity control for non-replicating M. tuberculosis project (AID 489025); format: functional
# [11] = target: T2, Replicative DNA helicase DnaB (Mycobacterium tuberculosis, UniProt P9WMR3); assay: DnaB intein splicing inhibitors, dose response, biochemical, cell-free fluorescence (AID 449749); format: functional
# T2 sequence (P9WMR3 whole entry): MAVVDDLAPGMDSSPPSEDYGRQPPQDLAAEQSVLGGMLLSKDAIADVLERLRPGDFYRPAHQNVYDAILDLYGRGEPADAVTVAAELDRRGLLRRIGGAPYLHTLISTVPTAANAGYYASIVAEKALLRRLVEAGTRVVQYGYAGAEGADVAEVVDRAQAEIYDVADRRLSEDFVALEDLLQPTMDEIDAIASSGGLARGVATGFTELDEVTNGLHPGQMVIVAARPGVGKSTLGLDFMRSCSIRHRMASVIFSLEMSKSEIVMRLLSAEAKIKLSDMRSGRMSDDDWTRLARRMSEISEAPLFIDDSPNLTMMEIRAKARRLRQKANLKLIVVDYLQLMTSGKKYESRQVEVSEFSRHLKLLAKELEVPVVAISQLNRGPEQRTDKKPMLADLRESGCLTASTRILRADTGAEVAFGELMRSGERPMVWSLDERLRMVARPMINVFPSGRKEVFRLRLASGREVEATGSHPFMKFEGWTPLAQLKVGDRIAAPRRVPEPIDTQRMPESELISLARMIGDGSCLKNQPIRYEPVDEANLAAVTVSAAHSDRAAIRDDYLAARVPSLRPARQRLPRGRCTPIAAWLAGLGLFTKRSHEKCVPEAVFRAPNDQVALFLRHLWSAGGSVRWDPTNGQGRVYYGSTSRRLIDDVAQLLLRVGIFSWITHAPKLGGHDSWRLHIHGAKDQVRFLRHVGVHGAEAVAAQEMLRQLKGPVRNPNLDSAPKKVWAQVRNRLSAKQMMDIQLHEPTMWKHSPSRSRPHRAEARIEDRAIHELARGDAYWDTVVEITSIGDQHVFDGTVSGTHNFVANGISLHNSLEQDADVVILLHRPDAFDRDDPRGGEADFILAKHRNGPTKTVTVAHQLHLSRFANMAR
# [12] = microbe, parasite or virus in culture; format: functional; conditions: Mycobacterium tuberculosis
# [13] = target: T3, Sentrin-specific protease 8 (Homo sapiens, UniProt Q96LD8); format: functional
# T3 sequence (Q96LD8 whole entry): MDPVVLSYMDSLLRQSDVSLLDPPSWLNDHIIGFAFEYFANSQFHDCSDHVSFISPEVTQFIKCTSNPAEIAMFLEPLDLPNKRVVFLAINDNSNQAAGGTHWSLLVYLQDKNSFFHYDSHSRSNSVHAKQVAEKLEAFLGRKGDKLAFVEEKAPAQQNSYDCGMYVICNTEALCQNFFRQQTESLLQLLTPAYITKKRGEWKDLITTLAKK
# [14] = target: T3, Sentrin-specific protease 8; format: functional; remark: listed apart in the source
# [15] = Counterscreen for antagonists of the human trace amine associated receptor 1 (hTAAR1): Fluorescence-based cell-based high throughput dose response assay to identify nonselective Ga16 antagonists.; format: functional
# [16] = Counterscreen for […] of the human trace amine associated receptor 1 (TAAR1): Fluorescence-based cell-based high throughput dose response assay to identify nonselective Ga16 agonists.; format: functional
# [17] = target: Nuclear receptor subfamily 0 group B member 1 (Homo sapiens, UniProt P51843); format: functional, cell-based;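 note: HEK293T cells transfected with SF-1 and DAX-1 plus StAR promoter luciferase reporter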
# cells [18] = format: functional, cell-based
# Fatty acid synthase = Fatty acid synthase (Homo sapiens, UniProt P49327); assay: FAS thioesterase domain inhibitors, SAR follow-up, biochemical, endpoint fluorescence intensity, powder samples (AID 652164); format: functional
# Fatty acid synthase, sequence (P49327 whole entry, the tested form may be a part): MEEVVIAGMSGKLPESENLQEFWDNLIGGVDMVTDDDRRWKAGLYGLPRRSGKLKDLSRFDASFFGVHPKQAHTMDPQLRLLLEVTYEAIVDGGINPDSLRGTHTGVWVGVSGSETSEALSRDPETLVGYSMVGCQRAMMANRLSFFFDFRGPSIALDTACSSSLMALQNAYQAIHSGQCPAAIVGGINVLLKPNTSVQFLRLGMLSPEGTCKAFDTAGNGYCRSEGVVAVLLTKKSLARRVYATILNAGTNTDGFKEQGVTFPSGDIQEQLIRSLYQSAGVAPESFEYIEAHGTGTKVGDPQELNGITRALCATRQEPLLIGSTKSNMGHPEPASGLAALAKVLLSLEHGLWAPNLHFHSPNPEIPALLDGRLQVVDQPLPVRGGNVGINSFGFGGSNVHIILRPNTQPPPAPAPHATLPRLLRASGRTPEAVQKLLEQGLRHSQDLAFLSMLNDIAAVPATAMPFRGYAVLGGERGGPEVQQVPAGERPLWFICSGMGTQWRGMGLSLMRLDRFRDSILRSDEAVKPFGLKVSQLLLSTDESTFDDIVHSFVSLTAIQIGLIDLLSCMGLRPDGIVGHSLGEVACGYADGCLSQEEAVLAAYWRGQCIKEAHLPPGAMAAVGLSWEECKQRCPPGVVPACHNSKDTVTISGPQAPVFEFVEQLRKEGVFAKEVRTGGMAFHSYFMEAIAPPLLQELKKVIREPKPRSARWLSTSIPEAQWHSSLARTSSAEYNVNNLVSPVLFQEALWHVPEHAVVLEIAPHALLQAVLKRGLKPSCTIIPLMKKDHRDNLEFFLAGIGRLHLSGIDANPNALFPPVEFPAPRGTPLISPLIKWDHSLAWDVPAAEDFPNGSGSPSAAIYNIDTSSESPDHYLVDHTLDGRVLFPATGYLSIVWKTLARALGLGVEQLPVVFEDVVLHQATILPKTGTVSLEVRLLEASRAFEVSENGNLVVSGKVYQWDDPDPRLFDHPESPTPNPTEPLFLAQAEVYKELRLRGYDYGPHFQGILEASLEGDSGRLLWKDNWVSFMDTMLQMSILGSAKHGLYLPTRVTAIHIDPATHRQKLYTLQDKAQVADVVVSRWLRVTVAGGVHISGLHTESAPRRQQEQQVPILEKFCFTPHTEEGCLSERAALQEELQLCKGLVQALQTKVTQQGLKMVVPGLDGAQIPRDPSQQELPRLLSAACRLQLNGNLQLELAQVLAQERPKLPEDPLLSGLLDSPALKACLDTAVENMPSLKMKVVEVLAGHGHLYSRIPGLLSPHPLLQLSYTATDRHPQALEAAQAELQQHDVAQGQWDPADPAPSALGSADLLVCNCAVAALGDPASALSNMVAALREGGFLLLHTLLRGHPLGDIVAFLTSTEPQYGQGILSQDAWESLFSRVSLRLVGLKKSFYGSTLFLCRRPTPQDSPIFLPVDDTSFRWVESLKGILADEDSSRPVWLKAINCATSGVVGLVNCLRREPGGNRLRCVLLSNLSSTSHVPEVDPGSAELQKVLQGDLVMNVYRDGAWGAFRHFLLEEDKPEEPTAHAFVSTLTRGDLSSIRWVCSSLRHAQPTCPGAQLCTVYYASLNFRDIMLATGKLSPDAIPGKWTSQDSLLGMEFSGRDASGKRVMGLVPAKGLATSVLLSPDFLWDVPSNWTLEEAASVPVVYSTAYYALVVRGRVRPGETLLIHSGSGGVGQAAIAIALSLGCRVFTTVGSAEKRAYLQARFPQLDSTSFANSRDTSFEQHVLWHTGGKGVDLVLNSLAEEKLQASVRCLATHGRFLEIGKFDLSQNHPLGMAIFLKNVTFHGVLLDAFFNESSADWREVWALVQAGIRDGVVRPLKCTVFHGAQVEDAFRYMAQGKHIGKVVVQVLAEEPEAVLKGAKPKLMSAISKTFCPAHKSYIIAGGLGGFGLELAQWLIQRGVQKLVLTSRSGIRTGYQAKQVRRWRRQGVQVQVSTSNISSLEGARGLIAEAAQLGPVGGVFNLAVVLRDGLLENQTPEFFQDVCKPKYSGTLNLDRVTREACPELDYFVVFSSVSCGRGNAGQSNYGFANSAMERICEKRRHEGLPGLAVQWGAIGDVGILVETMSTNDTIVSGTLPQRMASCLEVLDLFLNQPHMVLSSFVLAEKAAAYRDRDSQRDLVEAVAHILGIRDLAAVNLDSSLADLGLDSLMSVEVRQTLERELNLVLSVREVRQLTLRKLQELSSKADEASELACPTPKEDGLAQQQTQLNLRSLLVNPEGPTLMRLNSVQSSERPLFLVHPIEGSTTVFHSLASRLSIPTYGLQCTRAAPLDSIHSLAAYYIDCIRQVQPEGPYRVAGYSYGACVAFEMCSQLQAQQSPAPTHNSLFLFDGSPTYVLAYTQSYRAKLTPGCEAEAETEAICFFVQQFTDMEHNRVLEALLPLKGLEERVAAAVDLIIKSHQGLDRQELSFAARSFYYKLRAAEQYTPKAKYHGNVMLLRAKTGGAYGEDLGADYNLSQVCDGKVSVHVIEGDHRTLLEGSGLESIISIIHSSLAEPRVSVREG
# 1-phosphatidylinositol 4,5-bisphosphate phosphodiesterase gamma-1, sequence (P19174 whole entry): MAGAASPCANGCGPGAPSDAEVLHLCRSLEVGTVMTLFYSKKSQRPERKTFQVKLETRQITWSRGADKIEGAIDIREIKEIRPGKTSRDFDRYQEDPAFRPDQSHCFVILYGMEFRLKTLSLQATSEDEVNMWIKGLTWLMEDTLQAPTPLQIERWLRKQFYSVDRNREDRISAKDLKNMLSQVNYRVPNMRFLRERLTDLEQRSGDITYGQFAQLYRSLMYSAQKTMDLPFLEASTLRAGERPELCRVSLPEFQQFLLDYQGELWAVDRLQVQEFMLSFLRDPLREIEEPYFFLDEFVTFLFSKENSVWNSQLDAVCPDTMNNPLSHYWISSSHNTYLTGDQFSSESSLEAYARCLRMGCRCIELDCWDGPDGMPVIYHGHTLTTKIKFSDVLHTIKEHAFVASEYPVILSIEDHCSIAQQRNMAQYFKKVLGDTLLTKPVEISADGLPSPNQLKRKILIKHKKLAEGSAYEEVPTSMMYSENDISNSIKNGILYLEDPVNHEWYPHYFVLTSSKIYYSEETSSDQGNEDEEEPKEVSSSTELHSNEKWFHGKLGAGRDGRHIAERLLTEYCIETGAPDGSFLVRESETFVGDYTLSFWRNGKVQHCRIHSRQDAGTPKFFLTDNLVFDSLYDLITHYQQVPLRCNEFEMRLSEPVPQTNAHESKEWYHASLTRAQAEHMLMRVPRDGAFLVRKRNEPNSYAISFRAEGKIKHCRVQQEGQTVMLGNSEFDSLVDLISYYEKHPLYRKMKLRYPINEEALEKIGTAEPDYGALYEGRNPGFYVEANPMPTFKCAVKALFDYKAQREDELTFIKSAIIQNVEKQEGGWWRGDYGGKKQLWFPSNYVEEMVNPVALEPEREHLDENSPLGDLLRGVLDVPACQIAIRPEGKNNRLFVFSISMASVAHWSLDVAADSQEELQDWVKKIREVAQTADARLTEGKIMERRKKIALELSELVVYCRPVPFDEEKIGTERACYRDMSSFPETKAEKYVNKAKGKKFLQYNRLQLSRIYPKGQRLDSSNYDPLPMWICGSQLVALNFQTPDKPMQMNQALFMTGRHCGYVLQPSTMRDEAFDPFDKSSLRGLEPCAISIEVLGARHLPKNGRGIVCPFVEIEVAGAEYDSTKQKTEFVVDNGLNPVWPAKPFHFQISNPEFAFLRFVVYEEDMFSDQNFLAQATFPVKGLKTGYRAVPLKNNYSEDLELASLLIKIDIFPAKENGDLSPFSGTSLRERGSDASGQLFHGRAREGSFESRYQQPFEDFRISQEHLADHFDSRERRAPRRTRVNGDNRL
# 1-phosphatidylinositol 4,5-bisphosphate phosphodiesterase beta-3, sequence (Q01970 whole entry): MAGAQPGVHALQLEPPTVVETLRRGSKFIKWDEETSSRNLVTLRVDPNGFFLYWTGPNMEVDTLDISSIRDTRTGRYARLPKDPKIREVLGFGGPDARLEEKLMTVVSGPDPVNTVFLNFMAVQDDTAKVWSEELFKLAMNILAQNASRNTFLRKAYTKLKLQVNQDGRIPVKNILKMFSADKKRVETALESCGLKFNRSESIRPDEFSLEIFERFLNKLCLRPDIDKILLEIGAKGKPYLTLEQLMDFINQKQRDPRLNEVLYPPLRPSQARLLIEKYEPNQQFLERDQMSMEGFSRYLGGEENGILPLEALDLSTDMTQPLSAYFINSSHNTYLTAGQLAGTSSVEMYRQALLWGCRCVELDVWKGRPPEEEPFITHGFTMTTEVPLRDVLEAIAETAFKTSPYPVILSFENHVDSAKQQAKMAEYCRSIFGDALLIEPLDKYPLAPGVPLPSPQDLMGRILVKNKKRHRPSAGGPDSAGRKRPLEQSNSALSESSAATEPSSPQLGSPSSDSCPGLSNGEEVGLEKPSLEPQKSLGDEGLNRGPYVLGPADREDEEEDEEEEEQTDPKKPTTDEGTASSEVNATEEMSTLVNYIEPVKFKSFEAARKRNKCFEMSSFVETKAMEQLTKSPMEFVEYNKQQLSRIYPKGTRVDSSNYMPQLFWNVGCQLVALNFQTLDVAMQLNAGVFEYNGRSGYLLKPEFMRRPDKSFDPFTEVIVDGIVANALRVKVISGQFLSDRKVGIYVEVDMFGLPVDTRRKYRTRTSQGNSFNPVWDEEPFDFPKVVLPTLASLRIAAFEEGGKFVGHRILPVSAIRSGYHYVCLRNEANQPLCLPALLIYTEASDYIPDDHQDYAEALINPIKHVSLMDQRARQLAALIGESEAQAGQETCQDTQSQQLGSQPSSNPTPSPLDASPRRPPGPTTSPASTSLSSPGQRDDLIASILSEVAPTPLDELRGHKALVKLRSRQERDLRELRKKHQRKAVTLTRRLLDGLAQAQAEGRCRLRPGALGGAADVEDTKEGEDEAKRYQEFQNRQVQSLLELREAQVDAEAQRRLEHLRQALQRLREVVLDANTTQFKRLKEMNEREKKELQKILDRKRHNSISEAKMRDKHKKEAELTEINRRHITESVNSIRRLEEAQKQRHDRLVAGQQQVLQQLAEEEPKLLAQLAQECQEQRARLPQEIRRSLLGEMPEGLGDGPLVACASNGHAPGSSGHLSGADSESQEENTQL
compound,measurement,setting,value
CCNC(=O)C[C@H]1CC[C@@H]2[C@H](COC[C@H](O)CN2Cc2ccc(Cl)c(Cl)c2)O1,AC50,BHK-21,36.8 µM (active)
CC(=O)Oc1ccc2oc(/C=C/N(C)C)c([N+](=O)[O-])c2c1,IC50,[1],56.8 µM (inactive)
O=C(C1CCCC1)N1CCCCN2[C@@H](CO)[C@H](c3ccc(-c4cccc(F)c4)cc3)[C@@H]2C1,AC50,[2],121 nM (active)
c1ccc2sc(Nc3nc4cc5c(cc4s3)OCO5)nc2c1,IC50,cells [3],> 138 µM (inactive)
same,IC50,Major prion protein,8.57 µM (active)
COc1ccc(Nc2nc(Nc3ccc(OC)cc3)nc(SC3=NCCS3)n2)cc1,IC50,[4],1.68 µM (active)
same,EC50,[5],71.1 µM (active)
same,EC50,[6],40.1 µM (active)
Cc1c([N+](=O)[O-])cnc(Sc2ccccc2)c1[N+](=O)[O-],IC50,cells [7],7.94 µM (active)
same,IC50,[8],> 122 µM (inactive)
same,IC50,[9],> 122 µM (inactive)
same,EC50,Protein RecA,0.0479 µM (active)
same,CC50,[10],26.1 µM (active)
same,AC50,[11],0.181 µM (active)
same,CC50,[12],30.3 µM (active)
Cc1cc(C)nc(N2N=C(C(C)(C)C)CC2=O)n1,IC50,[13],8.2 µM (active)
same,IC50,[14],12.1 µM (active)
same,EC50,Protein RecA,10.9 µM (active)
same,AC50,[11],14.9 µM (active)
CC(=O)c1ccc(NC(=O)c2ccc(COc3ccccc3[N+](=O)[O-])o2)cc1,IC50,[15],> 29.9 µM (inactive)
same,EC50,[16],> 29.9 µM (inactive)
C=C1CCCC2OC(CC3=CC4/C(C)=C/CC(C)CC(/C=C(\C)C(O)C5CC(O)C(O)C(CCC(O)/C=C/C(C)=C/CCC6=NCCC(C3)C64C)O5)OC(=O)CC3OC(C(O)C1)C(O)C3O)CC(O)C2O (centres undefined),IC50,[17],> 67.5 µM (inactive)
same,IC50,cells [18],> 67.5 µM (inactive)
CCCCC(=O)Nc1nc(-c2cccc(S(=O)(=O)N3CCOCC3)c2)cs1,IC50,Fatty acid synthase,20.2 µM (inactive)
